Assay results as given in ChEMBL document CHEMBL5365497, “Developing Novel Coumarin-Containing Azoles Antifungal Agents by the Scaffold Merging Strategy for Treating Azole-Resistant Candidiasis” (J Med Chem, 2023).
pIC50: −log10 of the molar value. In brackets after ≈: the same amount, converted by molar mass. Activity calls are given as the source filed them. The calls are words filed in the database; no cut-off is given here.

Tests used:
Candida albicans [1] = experiment: Antifungal activity against Candida albicans SC5314 assessed as fungal growth inhibition by CLSI based microdilution method; type: functional
Candida albicans [2] = experiment: Antibiofilm activity against fluconazole-resistant Candida albicans 904 incubated for 24 hrs by XTT reduction assay; type: functional, organism-based; settings: dose <= 128.0 µg/ml
Candida albicans [3] = experiment: Induction of ROS production in fluconazole-resistant Candida albicans 904 at 64 ug/ml incubated for 30 mins by fluorescence microscopy; type: functional, organism-based; settings: dose 64.0 µg/ml
[4] = Stability in mouse plasma assessed as compound remaining at 1 uM measured for 180 mins by LC-MS/MS analysis; type: ADME, cell-free; settings: read-out: Stability
Candida albicans [5] = experiment: Antifungal activity against fluconazole-resistant Candida albicans 904 assessed as fungal growth inhibition measured for 48 hrs by CLSI based microdilution method; type: functional
Cryptococcus neoformans = experiment: Antifungal activity against Cryptococcus neoformans assessed as fungal growth inhibition by CLSI based microdilution method; type: functional
Candida albicans [6] = experiment: Antifungal activity against fluconazole-resistant Candida albicans 904 assessed as inhibition of yeast to hypha morphological transition at 16 ug/ml incubated for 4 hrs by inverted microscopy; type: functional, organism-based; settings: dose 16.0 µg/ml
[7] = Subacute toxicity in female KM mouse assessed as kidney inflammation at 100 mg/kg administered via gavage daily for 7 days; type: organism-based; settings: in vivo, po, 168 h, time 7 day
Candida albicans [8] = experiment: Antifungal activity against Candida albicans SC5314 assessed as destruction of cell membrane at 16 ug/ml incubated for 24 hrs by TEM analysis; type: functional, organism-based; settings: dose 16.0 µg/ml
Candida albicans [9] = experiment: Antifungal activity against Candida albicans CPCC400616 assessed as inhibition of yeast to hypha morphological transition at 2 ug/ml incubated for 4 hrs by inverted microscopy; type: functional, organism-based; settings: dose 2.0 µg/ml
[10] = Cytotoxicity against mouse J774.A1 cells assessed as cell growth inhibition by MTT assay; type: toxicity, cell-based
Candida albicans [11] = experiment: Antifungal activity against fluconazole-resistant Candida albicans 17# assessed as fungal growth inhibition by CLSI based microdilution method; type: functional
Candida albicans [12] = experiment: Antifungal activity against fluconazole-resistant Candida albicans 904 assessed as decrease in MDR1 expression at 16 ug/ml measured after 16 hrs by RT-PCR analysis; type: functional, organism-based; settings: dose 16.0 µg/ml
Candida albicans [13] = experiment: Antifungal activity against Candida albicans SC5314 infected in ICR mouse assessed as reduction in fungal kidney burden by measuring CFU at 0.6 mg/kg, ip measured after 5 days; type: functional, organism-based; settings: time 5.0 day
Candida albicans [14] = experiment: Antifungal activity against fluconazole-resistant Candida albicans 904 assessed as reduction in CPH1 expression at 16 ug/ml incubated for 12 hrs by RT-PCR analysis; type: functional, organism-based; settings: dose 16.0 µg/ml
Candida albicans [15] = experiment: Antifungal activity against Candida albicans CPCC400616 assessed as reduction in EFG1 expression at 2 ug/ml incubated for 12 hrs by RT-PCR analysis; type: functional, organism-based; settings: dose 2.0 µg/ml
Cytochrome P450 2C19 = Cytochrome P450 2C19 (Homo sapiens, UniProt P33261); experiment: Inhibition of CYP2C19 in human liver microsomes using […] as substrate preincubated for 5 mins followed by NADPH addition by LC-MS/MS analysis; type: ADME, Microsome
Cytochrome P450 2C19, sequence (P33261 whole entry): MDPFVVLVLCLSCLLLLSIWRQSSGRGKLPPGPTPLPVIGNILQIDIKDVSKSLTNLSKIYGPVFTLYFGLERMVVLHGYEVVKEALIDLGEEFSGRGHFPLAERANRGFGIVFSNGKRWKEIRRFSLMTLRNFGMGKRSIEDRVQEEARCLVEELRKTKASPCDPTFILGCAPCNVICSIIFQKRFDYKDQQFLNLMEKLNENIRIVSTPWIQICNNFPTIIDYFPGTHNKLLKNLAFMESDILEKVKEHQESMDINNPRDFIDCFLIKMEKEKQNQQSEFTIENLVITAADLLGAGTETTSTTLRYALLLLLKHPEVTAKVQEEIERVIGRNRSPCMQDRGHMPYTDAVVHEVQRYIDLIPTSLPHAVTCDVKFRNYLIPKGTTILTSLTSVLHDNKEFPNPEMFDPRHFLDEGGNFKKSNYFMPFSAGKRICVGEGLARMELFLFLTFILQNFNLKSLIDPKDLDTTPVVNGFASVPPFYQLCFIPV

[16] = Subacute toxicity in KM mouse assessed as liver damage at 100 mg/kg administered via gavage daily for 7 days; type: organism-based; settings: in vivo, po, 168 h, time 7 day
Candida albicans [17] = experiment: Antifungal activity against Candida albicans SC5314 assessed as destruction of cell wall at 16 ug/ml incubated for 24 hrs by TEM analysis; type: functional, organism-based; settings: dose 16.0 µg/ml
Candida albicans [18] = experiment: Antifungal activity against fluconazole-resistant Candida albicans 904 assessed as reduction in […] cell count at 16 times MIC incubated for 24 hrs by time-kill assay (reference value: 4 log10CFU/mL); type: functional
[19] = Subacute toxicity in female KM mouse assessed as kidney damage at 100 mg/kg administered via gavage daily for 14 days; type: organism-based; settings: in vivo, po, 336 h, time 14 day
Candida albicans [20] = experiment: Antifungal activity against Candida albicans CPCC400616 assessed as fungal growth inhibition by CLSI based microdilution method; type: functional
Candida albicans [21] = experiment: Antifungal activity against fluconazole-resistant Candida albicans 904 assessed as reduction in TEC1 expression at 16 ug/ml incubated for 12 hrs by RT-PCR analysis; type: functional, organism-based; settings: dose 16.0 µg/ml
Candida tropicalis = experiment: Antifungal activity against Candida tropicalis assessed as fungal growth inhibition by CLSI based microdilution method; type: functional
[22] = Acute toxicity in fasted KM mouse assessed as body weight change at 1000 mg/kg administered via gavage measured for 7 days; type: organism-based; settings: in vivo, po, 168 h, time 7 day
Cytochrome P450 2D6 = Cytochrome P450 2D6 (Homo sapiens, UniProt P10635); experiment: Inhibition of CYP2D6 in human liver microsomes using dextromethorphan as substrate preincubated for 5 mins followed by NADPH addition by LC-MS/MS analysis; type: ADME, Microsome
Cytochrome P450 2D6, sequence (P10635 whole entry): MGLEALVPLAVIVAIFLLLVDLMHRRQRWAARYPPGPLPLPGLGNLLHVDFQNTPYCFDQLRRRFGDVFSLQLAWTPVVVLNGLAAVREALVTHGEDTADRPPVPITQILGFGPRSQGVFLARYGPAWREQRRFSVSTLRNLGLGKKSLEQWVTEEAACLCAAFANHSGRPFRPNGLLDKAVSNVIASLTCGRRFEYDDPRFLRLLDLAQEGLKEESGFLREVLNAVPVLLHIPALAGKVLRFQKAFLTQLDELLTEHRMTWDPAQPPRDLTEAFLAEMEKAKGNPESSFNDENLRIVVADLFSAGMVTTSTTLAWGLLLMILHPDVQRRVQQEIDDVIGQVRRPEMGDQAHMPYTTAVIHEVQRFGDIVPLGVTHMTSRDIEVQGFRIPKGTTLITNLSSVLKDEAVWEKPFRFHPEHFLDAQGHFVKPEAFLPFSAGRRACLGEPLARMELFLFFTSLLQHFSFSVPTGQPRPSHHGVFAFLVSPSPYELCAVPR

Candida albicans [23] = experiment: Antifungal activity against fluconazole-resistant Candida albicans 904 assessed as decrease in ERG11 expression at 16 ug/ml measured after 16 hrs by RT-PCR analysis; type: functional, organism-based; settings: dose 16.0 µg/ml

SMILES: O=c1ccc2ccc(COC(Cn3ccnc3)c3ccc(Cl)cc3Cl)cc2o1 (configuration not stated)
- MIC (Candida albicans [1]): 0.03 µg/mL (≈ 0.0722 µM)
- Activity (Candida albicans [2]): Dose-Dependent Effect
- Activity (Candida albicans [3]): Active
- remaining at 3 h, 1 µM [4]: 103%
- MFC (Candida albicans [5]): 8 µg/mL (≈ 19.3 µM)
- MIC (Cryptococcus neoformans): 2 µg/mL (≈ 4.82 µM)
- inhibition (Candida albicans [6]): Active
- Activity [7]: Non-Toxic
- Activity (Candida albicans [8]): Active
- inhibition (Candida albicans [9]): Active
- pIC50 [10]: 4.61
- MIC (Candida albicans [11]): 4 µg/mL (≈ 9.63 µM)
- Activity (Candida albicans [12]): Active
- Activity (Candida albicans [13]): Active
- Activity (Candida albicans [14]): Active
- Activity (Candida albicans [15]): Active
- pIC50 (Cytochrome P450 2C19): 6.64
- Activity [16]: Toxic
- Activity (Candida albicans [17]): Active
- Activity (Candida albicans [18]): 2 log10CFU/ml
- Activity [19]: Non-Toxic
- MIC (Candida albicans [20]): 0.06 µg/mL (≈ 0.144 µM)
- Activity (Candida albicans [21]): Active
- MIC (Candida tropicalis): 0.25 µg/mL (≈ 0.602 µM)
- Activity [22]: Non-Toxic
- pIC50 (Cytochrome P450 2D6): 5.94
- Activity (Candida albicans [23]): Active
